Laboratory results from paper PMC5371824, “Phosphatidylinositol (4,5)-bisphosphate dynamically regulates the K2P background K^+ channel TASK-2” (Scientific Reports, 2017).
“And” between values parts separate entries of the source, which are not always exact repeats. Equal values may be shown once.

How the values were obtained:
KCNQ1/KCNE1 = system: KCNQ1/KCNE1; set-up: method as in PMID 21576493; conditions: read-out: EC50 for PI(4,5)P2 effect; cited from earlier work
TASK-2 = molecular target: T1, TASK-2 (Mus musculus, UniProt F6V9U5); assay: Excised inside-out patch recording from HEK-293 cells over-expressing TASK-2; assay type: biochemical
T1 construct: expressed in transfected cells; host or cells: HEK-293
T1 sequence (F6V9U5 1-502): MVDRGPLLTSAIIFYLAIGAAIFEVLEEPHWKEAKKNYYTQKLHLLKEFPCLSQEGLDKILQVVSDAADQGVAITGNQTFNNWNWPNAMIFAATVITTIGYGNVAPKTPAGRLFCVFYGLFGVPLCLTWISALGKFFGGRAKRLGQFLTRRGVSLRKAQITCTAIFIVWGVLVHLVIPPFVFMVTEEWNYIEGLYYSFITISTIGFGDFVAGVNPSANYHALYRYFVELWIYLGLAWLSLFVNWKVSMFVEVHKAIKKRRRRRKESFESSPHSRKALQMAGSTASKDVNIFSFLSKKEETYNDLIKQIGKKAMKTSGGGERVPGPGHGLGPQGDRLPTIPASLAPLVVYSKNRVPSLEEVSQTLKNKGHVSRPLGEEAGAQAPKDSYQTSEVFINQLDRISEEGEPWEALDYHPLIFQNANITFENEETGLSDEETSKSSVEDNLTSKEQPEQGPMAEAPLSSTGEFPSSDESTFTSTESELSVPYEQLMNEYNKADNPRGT
Protocol: HEK-293 cells were cultured in Dulbecco’s modified Eagle’s medium (DMEM) and F12 Ham’s medium at a 1:1 ratio and supplemented with 10% fetal calf serum at 37 °C in 5% CO2. For electrophysiological experiments, transient transfections were performed by electroporation, using CD8 cotransfection to identify effectively transfected cells. […] Experiments were performed 4–8 h after electroporation.
Recordings in the inside-out isolated patch configuration were performed in the gap-free mode at −60 mV. The inside aspect of the patch was bathed with a solution containing in mM: 10 KCl, 10 Glucose, 1 MgCl2, 10 EGTA, 1 Na3ATP, 0.1 GTP, 6.8 g/100 ml Sucrose, 10 Hepes/Tris, pH 7.4. The pipette contained in mM: 140 KCl, 10 Glucose, 6.8 g/100 ml Sucrose, 10 Hepes/Tris pH 7.4. For isolated patches, borosilicate capillaries (Harvard Apparatus GC150F-10 1.5 ODx0.86 ID) were fire polished to 4–5 MΩ and covered in beeswax. Acquisition was at 10 kHz with filter at 3 kHz (4-pole Bessel) and analysis was done with Clampfit 9.0 (Axon Instruments, Foster City, CA, USA). Traces shown are prints from crude Clampfit screen shots and quantification was done using the average currents were calculated at intervals using Clampfit after baseline adjustment.

CCCCCCCC(=O)OC[C@H](COP(=O)(O)O[C@@H]1[C@H](O)[C@H](O)[C@@H](OP(=O)(O)O)[C@H](OP(=O)(O)O)[C@H]1O)OC(=O)CCCCCCC [PI(4,5)P2, phosphatidylinositol 4,5-bisphosphate diC8]
EC50 (KCNQ1/KCNE1): 5 µM | Effect of readmitted ATP relative to the maximal effect elicited by the PIP (TASK-2; 1 mM ATP added after PIP, inside-out patches, Fig. S3): 1.7 fold | Stimulating effect on TASK-2-mediated currents after run-down (TASK-2; diC8 PIP added to inside-out excised patches, absence of ATP): Robust, but intermediate effects | Maximal fold effect on TASK-2 current (normalised to current in absence of PIP) (TASK-2; diC8 PIP, inside-out patch, -60 mV, absence of ATP, from fits, means ± SEM): 3.7 ± 0.2 fold | EC50 (TASK-2; diC8 PIP, inside-out patch, -60 mV, absence of ATP, from fits, means ± SEM, read-out: K0.5 (EC50) for activation of TASK-2 current): 34.9 µM and 35 µM
